Experiments:
Human CB2 = target: T1, Human CB2 (Homo sapiens, UniProt P34972); assay: Human CB2 Radioligand Binding Assay; conditions: membranes from stably transfected CHO CB2 cells; competition with [3H] CP-55,940; read-out: CB2 Ligand Binding Asssay
T1 construct: expressed in transfected cells; membrane preparation
Procedure: (§1) This receptor binding filtration assay measures the receptor-ligand interactions of compounds by measuring ability to compete with a radiolabeled control ligand. Reactions were performed in 96 deep-well plate (Costar 3961) with a final volume of 600 ul. Compounds were added to each well either in single point (10 uM final) or dose-response. Compounds were delivered in DMSO or further diluted in incubation buffer to a final assay DMSO concentration of 1%. Incubation buffer (50 mM Tris-HCl pH 7.4, 2.5 mM EGTA, 5 mM MgCl2, 5.0 mg/ml fatty acid free BSA) was added to each well. Following buffer addition, [^3H] CP-55,940 was added. Tritiated CP-55,940 (Perkin Elmer) was used at the Kd determined from prior saturation binding experiments conducted on each lot of membranes. Membrane preparations from stably transfected CHO CB2 cells were added and the reaction was incubated for 90 minutes at 30° C. Unifilter GF/C filtration plates (Perkin Elmer) were pre-wet with 0.05% polyethylenimine. Samples were transferred to Unifilter plates and separation of unbound radioligand was achieved using a vacuum manifold (Millipore). Following thorough washing with 5 ml/well ice-cold wash buffer (50 mM Tris-HCl pH 7.4, 2.5 mM EGTA, 5 mM MgCl2, 0.5 mg/ml fatty acid free BSA), filterplates were dried completely. Betaplate Scint Scintillation cocktail (25 ul, Perkin Elmer) was applied and plates were read using Microbeta Trilux (Wallac). Data analysis was performed in Spotfire. Activity of the positive control (100 nM CP-55,940) was set as 100% efficacy.
Stable recombinant Human CB2-CHO cell membranes were prepared as follows: Chinese Hamster Ovarian (CHO) cells stably expressing human cannabinoid receptor type 2 were grown to ˜90% confluence in 15×100 mm culture dishes under puromycin selection (5 ug/ml) Cells were harvested from culture flasks using a cell scraper, were washed once with cold phosphate-buffered saline (calcium and magnesium free) and pelleted by centrifugation at 400 g for 5 min at 4° C. Cell pellet was washed once with cold phosphate-buffered saline and centrifuged again at 400×g for 5 min at 4° C. The pellet was suspended in ice-cold lysis buffer (10 mM Tris-HCl, 0.1 mM EDTA, containing […], pH 7.5) and homogenized in a chilled 7 ml glass dounce homogenizer using 50 strokes. The homogenate was centrifuged at 400 g for 15 min at 4° C. The cloudy supernatant was collected and centrifuged at 41000 g for 30 min at 4° C. The resulting pellet was washed with ice-cold sucrose-free lysis buffer and centrifuged again at 41000 g for 30 min at 4° C. The membrane pellet was suspended in sucrose-free storage buffer (10 mm Tris-HCl, 0.1 mM EDTA, pH 7.5) to a concentration of 2-3 mg protein/ml. Aliquots were flash frozen in liquid nitrogen and stored at −80° C. Concentration was determined using Dc protein assay kit (Bio-Rad).

[1] = target: T2, human cannabinoid receptor type 1 (Homo sapiens, UniProt P21554); assay: Human CB1 Radioligand Binding Assay (basis of selectivity CB2 vs. CB1)
T2 construct: purchased Perkin Elmer RBHCB1M; host or cells: HEK 293 EBNA cells
Procedure: as §1
The CB1 binding assay was performed as described above except that HEK 293 EBNA cells expressing human cannabinoid receptor type 1 (Perkin Elmer cat #RBHCB1M) were used according the manufacturer's instructions. The incubation buffer was composed of 50 mM Tris-HCl pH 7.4, 2.5 mM EDTA, 5 mM MgCl2, 5.0 mg/ml fatty acid free BSA and the wash buffer was composed of 50 mM Tris-HCl pH 7.4, 2.5 mM EDTA, 5 mM MgCl2, 0.5 mg/ml fatty acid free BSA. Activity of the positive control (100 nM CP-55,940) was set as 100% efficacy.

T1 sequence (P34972 whole entry): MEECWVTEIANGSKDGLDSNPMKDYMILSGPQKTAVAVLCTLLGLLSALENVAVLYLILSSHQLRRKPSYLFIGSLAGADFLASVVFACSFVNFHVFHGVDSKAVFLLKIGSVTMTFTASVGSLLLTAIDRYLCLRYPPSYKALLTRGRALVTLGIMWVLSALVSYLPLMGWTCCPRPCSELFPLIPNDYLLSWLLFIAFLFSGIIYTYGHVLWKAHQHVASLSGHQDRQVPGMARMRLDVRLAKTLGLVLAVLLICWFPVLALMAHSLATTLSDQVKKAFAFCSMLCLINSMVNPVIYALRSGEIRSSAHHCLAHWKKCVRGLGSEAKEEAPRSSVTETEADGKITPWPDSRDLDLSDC
T2 sequence (P21554 whole entry): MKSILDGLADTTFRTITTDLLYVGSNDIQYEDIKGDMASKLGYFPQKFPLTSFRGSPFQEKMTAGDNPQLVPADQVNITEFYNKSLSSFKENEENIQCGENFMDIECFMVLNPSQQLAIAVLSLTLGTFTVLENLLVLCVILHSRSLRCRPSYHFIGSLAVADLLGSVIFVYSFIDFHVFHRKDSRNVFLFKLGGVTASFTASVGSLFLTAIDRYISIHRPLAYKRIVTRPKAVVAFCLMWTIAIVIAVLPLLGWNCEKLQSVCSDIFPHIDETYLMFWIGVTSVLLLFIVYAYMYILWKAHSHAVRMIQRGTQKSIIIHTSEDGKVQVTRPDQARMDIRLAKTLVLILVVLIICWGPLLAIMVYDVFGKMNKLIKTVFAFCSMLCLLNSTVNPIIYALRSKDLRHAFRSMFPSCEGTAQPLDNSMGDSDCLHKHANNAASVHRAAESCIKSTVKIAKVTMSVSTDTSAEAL

CC(C)(C)c1ccc(C2c3cccn3CCCC2NC(=O)Nc2ccc(Cl)c(Cl)c2)cc1 (single isomer, unassigned) [Example 121, 1-(9-(4-tert-Butylphenyl)-6,7,8,9-tetrahydro-5H-pyrrolo[1,2-a]azepin-8-yl)-3-(3,4-dichlorophenyl)urea]
IC50 (radioligand displacement) (Human CB2): > 1000 nM | Selectivity, CB2 vs. CB1 [1]: − (− indicates < 10-fold)

CC(C)(C)c1ccc(C2NCCn3cccc32)cc1 (centres unmarked) [Example 1, 1-(4-tert-Butylphenyl)-1,2,3,4-tetrahydropyrrolo[1,2-a]pyrazine]
IC50 (radioligand displacement) (Human CB2): > 1000 nM | Selectivity, CB2 vs. CB1 [1]: − (− indicates < 10-fold)

CC(C)(C)c1ccc(C2c3cccn3CCN2C(=O)Nc2ccc(F)cc2F)cc1 (centres unmarked) [Example 2, 1-(4-tert-Butylphenyl)-N-(2,4-difluorophenyl)-3,4-dihydropyrrolo[1,2-a]pyrazine-2(1H)-carboxamide]
IC50 (radioligand displacement) (Human CB2): < 1000 nM | Selectivity, CB2 vs. CB1 [1]: + (+ indicates > 10-fold)

O=C(Nc1ccc(F)cc1F)N1CCn2cccc2C1c1ccccc1 (centres unmarked) [Example 5, N-(2,4-Difluorophenyl)-1-phenyl-3,4-dihydropyrrolo[1,2-a]pyrazine-2(1H)-carboxamide]
IC50 (radioligand displacement) (Human CB2): > 1000 nM | Selectivity, CB2 vs. CB1 [1]: + (+ indicates > 10-fold)

CC(C)(C)c1ccc(C2c3cccn3CCCN2C(=O)Nc2ccc(F)cc2F)cc1 (centres unmarked) [Example 7, 1-(4-tert-Butylphenyl)-N-(2,4-difluorophenyl)-4,5-dihydro-1H-pyrrolo[1,2-a][1,4]diazepine-2(3H)-carboxamide]
IC50 (radioligand displacement) (Human CB2): < 1000 nM | Selectivity, CB2 vs. CB1 [1]: + (+ indicates > 10-fold)

Cc1ccc(C2c3cccn3CCCN2C(=O)Nc2ccc(F)cc2F)cc1 (centres unmarked) [Example 8, N-(2,4-Difluorophenyl)-1-p-tolyl-4,5-dihydro-1H-pyrrolo[1,2-a][1,4]diazepine-2(3H)-carboxamide]
IC50 (radioligand displacement) (Human CB2): < 1000 nM | Selectivity, CB2 vs. CB1 [1]: − (− indicates < 10-fold)

Cc1cccc(C2c3cccn3CCCN2C(=O)Nc2ccc(F)cc2F)c1 (centres unmarked) [Example 10, N-(2,4-Difluorophenyl)-1-m-tolyl-4,5-dihydro-1H-pyrrolo[1,2-a][1,4]diazepine-2(3H)-carboxamide]
IC50 (radioligand displacement) (Human CB2): > 1000 nM | Selectivity, CB2 vs. CB1 [1]: − (− indicates < 10-fold)

Cc1cccc(C2c3cccn3CCCN2C(=O)Nc2ccc(Cl)cc2Cl)c1 (centres unmarked) [Example 11, N-(2,4-Dichlorophenyl)-1-m-tolyl-4,5-dihydro-1H-pyrrolo[1,2-a][1,4]diazepine-2(3H)-carboxamide]
IC50 (radioligand displacement) (Human CB2): > 1000 nM | Selectivity, CB2 vs. CB1 [1]: − (− indicates < 10-fold)

O=C(Nc1ccc(F)cc1F)N1CCCn2cccc2C1c1ccccc1 (centres unmarked) [Example 12, N-(2,4-Difluorophenyl)-1-phenyl-4,5-dihydro-1H-pyrrolo[1,2-a][1,4]diazepine-2(3H)-carboxamide]
IC50 (radioligand displacement) (Human CB2): > 1000 nM | Selectivity, CB2 vs. CB1 [1]: − (− indicates < 10-fold)

O=C(Nc1ccc(Cl)cc1Cl)N1CCCn2cccc2C1c1ccccc1 (centres unmarked) [Example 13, N-(2,4-Dichlorophenyl)-1-phenyl-4,5-dihydro-1H-pyrrolo[1,2-a][1,4]diazepine-2(3H)-carboxamide]
IC50 (radioligand displacement) (Human CB2): > 1000 nM | Selectivity, CB2 vs. CB1 [1]: − (− indicates < 10-fold)

CC(C)(C)c1cccc(C2c3cccn3CCCN2C(=O)Nc2ccc(F)cc2F)c1 (centres unmarked) [Example 18, 1-(3-tert-Butylphenyl)-N-(2,4-difluorophenyl)-4,5-dihydro-1H-pyrrolo[1,2-a][1,4]diazepine-2(3H)-carboxamide]
IC50 (radioligand displacement) (Human CB2): < 1000 nM | Selectivity, CB2 vs. CB1 [1]: + (+ indicates > 10-fold)

CC(C)(C)c1cccc(C2c3cccn3CCCN2C(=O)Nc2ccc(Cl)cc2Cl)c1 (centres unmarked) [Example 19, 1-(3-tert-Butylphenyl)-N-(2,4-dichlorophenyl)-4,5-dihydro-1H-pyrrolo[1,2-a][1,4]diazepine-2(3H)-carboxamide]
IC50 (radioligand displacement) (Human CB2): > 1000 nM | Selectivity, CB2 vs. CB1 [1]: − (− indicates < 10-fold)

O=C(Nc1ccc(Cl)cc1Cl)N1CCCn2cccc2C1Cc1ccccc1 (centres unmarked) [Example 21, 1-Benzyl-N-(2,4-dichlorophenyl)-4,5-dihydro-1H-pyrrolo[1,2-a][1,4]diazepine-2(3H)-carboxamide]
IC50 (radioligand displacement) (Human CB2): > 1000 nM | Selectivity, CB2 vs. CB1 [1]: − (− indicates < 10-fold)

CC(C)(C)c1ccc(CC2c3cccn3CCCN2C(=O)Nc2ccc(F)cc2F)cc1 (centres unmarked) [Example 23, 1-(4-tert-Butylbenzyl)-N-(2,4-difluorophenyl)-4,5-dihydro-1H-pyrrolo[1,2-a][1,4]diazepine-2(3H)-carboxamide]
IC50 (radioligand displacement) (Human CB2): < 1000 nM | Selectivity, CB2 vs. CB1 [1]: + (+ indicates > 10-fold)

CC(C)(C)c1ccc(CC2c3cccn3CCCN2C(=O)Nc2ccc(Cl)cc2Cl)cc1 (centres unmarked) [Example 24, 1-(4-tert-Butylbenzyl)-N-(2,4-dichlorophenyl)-4,5-dihydro-1H-pyrrolo[1,2-a][1,4]diazepine-2(3H)-carboxamide]
IC50 (radioligand displacement) (Human CB2): < 1000 nM | Selectivity, CB2 vs. CB1 [1]: − (− indicates < 10-fold)

CC(C)(C)c1ccc(C2c3ccnn3CCCN2C(=O)Nc2ccc(Cl)cc2Cl)cc1 (centres unmarked) [Example 25, 4-(4-tert-Butylphenyl)-N-(2,4-dichlorophenyl)-7,8-dihydro-4H-pyrazolo [1,5-a][1,4]diazepine-5(6H)-carboxamide]
IC50 (radioligand displacement) (Human CB2): < 1000 nM | Selectivity, CB2 vs. CB1 [1]: + (+ indicates > 10-fold)

CC(C)(C)c1ccc(C2c3nccn3CCCN2C(=O)Nc2ccc(F)cc2F)cc1 (centres unmarked) [Example 27, 9-(4-tert-Butylphenyl)-N-(2,4-difluorophenyl)-6,7-dihydro-5H-imidazo [1,2-a][1,4]diazepine-8(9H)-carboxamide]
IC50 (radioligand displacement) (Human CB2): < 1000 nM | Selectivity, CB2 vs. CB1 [1]: + (+ indicates > 10-fold)

CC(C)(C)c1ccc(C2c3nccn3CCCN2C(=O)Nc2ccc(F)c(F)c2)cc1 (centres unmarked) [Example 28, 9-(4-tert-Butylphenyl)-N-(3,4-difluorophenyl)-6,7-dihydro-5H-imidazo[1,2-a][1,4]diazepine-8(9H)-carboxamide]
IC50 (radioligand displacement) (Human CB2): < 1000 nM | Selectivity, CB2 vs. CB1 [1]: + (+ indicates > 10-fold)

CC(C)(C)c1ccc(C2c3nccn3CCCN2C(=O)Nc2ccc(Cl)cc2Cl)cc1 (centres unmarked) [Example 29, 9-(4-tert-Butylphenyl)-N-(2,4-dichlorophenyl)-6,7-dihydro-5H-imidazo[1,2-a][1,4]diazepine-8(9H)-carboxamide]
IC50 (radioligand displacement) (Human CB2): > 1000 nM | Selectivity, CB2 vs. CB1 [1]: − (− indicates < 10-fold)

CC(C)(C)c1ccc(C2c3cncn3CCCN2C(=O)Nc2ccc(Cl)cc2Cl)cc1 (centres unmarked) [Example 31, 9-(4-tert-Butylphenyl)-N-(2,4-dichlorophenyl)-6,7-dihydro-5H-imidazo[1,5-a][1,4]diazepine-8(9H)-carboxamide]
IC50 (radioligand displacement) (Human CB2): < 1000 nM | Selectivity, CB2 vs. CB1 [1]: + (+ indicates > 10-fold)

CC(C)(C)C1CCC(C2NCCCn3cccc32)CC1 (centres unmarked) [Example 32, 1-(4-tert-Butylcyclohexyl)-2,3,4,5-tetrahydro-1H-pyrrolo[1,2-a][1,4]diazepine]
IC50 (radioligand displacement) (Human CB2): > 1000 nM | Selectivity, CB2 vs. CB1 [1]: + (+ indicates > 10-fold)

CC(C)(C)C1CCC(C2c3cccn3CCCN2C(=O)Nc2ccc(F)c(F)c2)CC1 (centres unmarked) [Example 33, 1-(4-tert-Butylcyclohexyl)-N-(3,4-difluorophenyl)-4,5-dihydro-1H-pyrrolo[1,2-a][1,4]diazepine-2(3H)-carboxamide]
IC50 (radioligand displacement) (Human CB2): < 1000 nM | Selectivity, CB2 vs. CB1 [1]: − (− indicates < 10-fold)
